Results: patent US11873298B2, “Compounds and uses thereof” (JANSSEN PHARMACEUTICA NV, priority 2017, dated 2024)
pIC50: −log10 of the molar value. Values joined by “and” are separate entries in the source; they are usually repeats but may differ in a detail not shown here. Equal values may be shown once.

Experiments:
Type in all cases: cell-based
SCD5 = target: T1, SCD5 (Homo sapiens, UniProt Q86SK9); assay: Growth inhibition of humanized yeast strain expressing SCD5 as sole desaturase
T1 construct: host or cells: S. cerevisiae ole1Δ strain (W303 pdr1Δ pdr3Δ background), plasmid pRS316 with TDH3 promoter and CYC1 terminator
T1 sequence (Q86SK9 1-330): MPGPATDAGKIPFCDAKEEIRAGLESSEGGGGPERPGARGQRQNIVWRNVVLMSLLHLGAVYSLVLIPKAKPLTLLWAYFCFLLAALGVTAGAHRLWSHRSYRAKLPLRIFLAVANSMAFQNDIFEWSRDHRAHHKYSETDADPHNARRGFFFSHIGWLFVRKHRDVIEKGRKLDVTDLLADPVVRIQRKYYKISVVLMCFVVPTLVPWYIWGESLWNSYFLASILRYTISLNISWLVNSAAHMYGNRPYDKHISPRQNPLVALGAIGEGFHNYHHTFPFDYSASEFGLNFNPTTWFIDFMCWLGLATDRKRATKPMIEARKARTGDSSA
Outline: (§1)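 OD600 growth read-out. ole1Δ yeast, pdr1Δ pdr3Δ, with Ole1/SCD1/SCD5 on a plasmid; SX-Ura media throughout; 2× cell density 0.02 in CSM-Galactose; DMSO compound dilutions; humidified 30° C.; Ole1 stopped at 24 h, SCD1/SCD5 at 40 h.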

Ole1 = target: T2, Ole1 (Saccharomyces cerevisiae, UniProt P21147); assay: Growth inhibition of yeast strain expressing Ole1 as sole desaturase; settings: for pIC50 / OLE1 % Max Inhibition: yeast strain expressing Ole1 as sole desaturase
T2 construct: expressed in transfected cells; host or cells: S. cerevisiae ole1Δ strain (W303 pdr1Δ pdr3Δ background), plasmid pRS316 with TDH3 promoter and CYC1 terminator
T2 sequence (P21147 1-510): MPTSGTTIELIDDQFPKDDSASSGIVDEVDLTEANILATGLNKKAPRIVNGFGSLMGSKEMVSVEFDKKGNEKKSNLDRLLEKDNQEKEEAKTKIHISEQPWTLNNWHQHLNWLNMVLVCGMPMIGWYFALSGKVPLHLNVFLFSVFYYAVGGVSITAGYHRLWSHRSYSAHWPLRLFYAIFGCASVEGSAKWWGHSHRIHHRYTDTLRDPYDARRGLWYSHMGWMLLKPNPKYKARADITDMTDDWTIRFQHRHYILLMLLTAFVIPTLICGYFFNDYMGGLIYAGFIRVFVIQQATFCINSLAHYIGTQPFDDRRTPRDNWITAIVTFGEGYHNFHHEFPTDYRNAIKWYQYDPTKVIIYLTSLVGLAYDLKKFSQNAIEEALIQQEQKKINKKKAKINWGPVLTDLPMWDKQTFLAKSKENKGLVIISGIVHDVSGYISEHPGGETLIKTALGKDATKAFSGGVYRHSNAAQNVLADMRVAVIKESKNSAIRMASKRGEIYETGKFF
Protocol: Strain oleΔ (yeast ole1 deletion mutant) was constructed by deleting OLE1 with NAT-MX6 in BY4741, amplifying the deletion cassette from the genomic DNA of the resulting strain with primers flanking the ORF by 1000 bp upstream and downstream, transforming the resulting deletion cassette into W303 pdr1Δ pdr3Δ, and plating transformants on YPD media containing G418 (200 μg/mL) and nourseothricin ([…]) with 0.01% TWEEN®-20 and 0.5 mM oleic and palmitoleic acids.
The coding sequence of yeast OLE1 was also cloned into this plasmid). These clones were then transformed into the ole1Δ strain and plated on CSM-Ura media (CSM lacking uracil) with 2% glucose (w/v) and independent colonies were isolated and amplified.
All compound profiling experiments were performed using the same basic protocol. Different genetic backgrounds (e.g., gene deletions) or conditions (e.g., addition of oleic and palmitoleic acid) were replaced as indicated below.
Yeast were cultured using standard techniques in complete synthetic media (CSM) and yeast nitrogen base supplemented with 2% (w/v) carbon source (glucose, raffinose, or galactose) to regulate the expression of the toxic disease protein. An initial starter culture was inoculated in 3 mL CSM-Glucose media and incubated overnight in a 30° C. shaker incubator (225 rpm). Saturated morning cultures were then diluted 1:20 in fresh CSM-Raffinose media and grown for 6 h to an OD600 (optical density) of ˜0.4-0.8 at 30° C. with shaking.
Compound administration was performed in two separate steps. First, 15 μL of CSM-Galactose (induces expression of toxic protein) was dispensed into clear 384 well assay plates using a MULTIDROP™ Combi reagent dispenser. […] The cultures described above were then diluted to a 2× concentration (0.03 and 0.08 for alpha-synuclein and ApoE, final ODsoo of 0.015 and 0.04) in CSM-Galactose. For wild-type and Ole1/SCD1/SCD5 plasmid-containing strains, the 2× cell density was 0.02. […] For 96-well assays (FIGS. 1A and 1B), compound dilutions in DMSO were generated in 96 well plates and 1 μL was manually pipetted into 96 well clear bottom assay plates.
For experiments using a plasmid-borne copy of Ole1, SCD1, or SCD5 (FIGS. 3B, 6, and 7), media lacking uracil (SX-Ura, where X is glucose, raffinose, or galactose), was used for all steps of the compound profiling protocol to ensure its maintenance throughout the assay.
After yeast delivery, assay plates were incubated under humidified conditions at 30° C. for 24 to 40 h. ApoE4 rescue experiments were stopped at 24 h, aSyn experiments at 40 h, Ole1 at 24 h, and SCD1/SCD5 at 40 h. The growth of yeast was monitored by reading the ODsoo of each well using a microplate reader (Perkin Elmer EnVision™).

SCD1 = target: T3, SCD1 (Homo sapiens, UniProt O00767); assay: Growth inhibition of humanized yeast strain expressing SCD1 as sole desaturase
T3 construct: host or cells: S. cerevisiae ole1Δ strain (W303 pdr1Δ pdr3Δ background), plasmid pRS316 with TDH3 promoter and CYC1 terminator
T3 sequence (O00767 1-359): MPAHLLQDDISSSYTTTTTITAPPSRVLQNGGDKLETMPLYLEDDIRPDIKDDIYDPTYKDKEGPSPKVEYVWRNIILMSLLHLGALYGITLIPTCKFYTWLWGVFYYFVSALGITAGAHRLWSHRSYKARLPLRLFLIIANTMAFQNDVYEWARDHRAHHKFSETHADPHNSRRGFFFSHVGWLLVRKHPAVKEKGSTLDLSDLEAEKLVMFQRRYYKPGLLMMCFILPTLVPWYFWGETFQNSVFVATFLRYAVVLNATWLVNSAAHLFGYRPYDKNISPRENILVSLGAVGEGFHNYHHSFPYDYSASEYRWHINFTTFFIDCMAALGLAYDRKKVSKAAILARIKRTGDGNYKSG
Outline: as §1

[1] = humanized yeast strain expressing SCD5
[2] = humanized yeast strain expressing SCD1
[3] = growth inhibition of humanized yeast strain expressing human SCD5
[4] = growth inhibition of humanized yeast strain expressing human SCD1

SMILES | pIC50 (SCD5; [1]) | SCD5 % Max Inhibition (SCD5; [1]) | pIC50 (Ole1) | OLE1 % Max Inhibition (Ole1) | further results
COc1ccc(-c2noc(C3CCNCC3)n2)cc1OC [Compound 488] | < 4.35 | 72.82% | < 4.35 | 90.53% | SCD1 % Max Inhibition (SCD1; [2]): 75.87%
Cc1nn(C)c2cc(-c3noc(C4CCN(C(=O)CNC(=O)c5ccccc5)CC4(F)F)n3)ccc12 (centres unmarked) [Compound 244] | < 4.35 | 2.85% and 2.47% | < 4.35 | 3.34% and 1.29% | pIC50 (SCD1; [2]): < 4.35; SCD1 % Max Inhibition (SCD1; [2]): 15.54% and 8.51%
CC(C)n1cc2ccc(-c3noc(C4CCN(C(=O)OC(C)(C)C)CC4)n3)cc2n1 [Compound 277] | < 4.35 | 74.99% | < 4.35 | 94.36% | SCD1 % Max Inhibition (SCD1; [2]): 76.49%
CC(C)n1ncc2ccc(-c3noc(C4CCN(C(=O)c5cccc(F)c5)CC4)n3)cc21 [Compound 344] | < 4.35 | 1.1% | < 4.35 | 7.14% | 
Cc1nn(C)c2cc(-c3noc(C4CCN(C(=O)[C@@H]5CC(=O)N(c6cccc(C#N)c6)C5)CC4)n3)ccc12 [Compound 306] | < 4.35 |  | < 4.35 | 33.2% and 36.88% | pIC50 (SCD1; [2]): ≤ 4.35; SCD1 % Max Inhibition (SCD1; [2]): 67.6% and 63.32%
Cc1nn(C)c2cc(-c3noc(C4CCN(C(=O)[C@H]5CC(=O)N(c6cccc(C#N)c6)C5)CC4)n3)ccc12 [Compound 305] | < 4.35 |  | < 4.35 | 6.6% and 4.23% | pIC50 (SCD1; [2]): ≤ 4.35; SCD1 % Max Inhibition (SCD1; [2]): 73.2% and 55.27%
O=C(C1CC(=O)N(c2cccc(Cl)c2)C1)N1CCC(c2nc(Cl)no2)CC1 (centres unmarked) [Compound 348] |  | 59.2% | < 4.35 | 74.78% | 
CC(C)n1ncc2ccc(-c3noc(C4CCN(C(=O)c5ccccc5Cl)CC4)n3)cc21 [Compound 345] | < 4.35 | 2.2% | < 4.35 | 6.63% | 
CC(C)c1ccc(C(=O)N2CCC(c3nc(Cl)no3)CC2)cc1 [Compound 352] | < 4.35 | 44.5% | < 4.35 | 71.57% | 
CC(C)n1ncc2ccc(-c3noc(N4CCN(C(=O)OC(C)(C)C)CC4)n3)cc21 [Compound 349] | < 4.35 | 0.2% | < 4.35 | 84.00% | 
N#Cc1cccc(N2CC(C(=O)N3CCC(c4nc(Cl)no4)CC3)CC2=O)c1 (centres unmarked) [Compound 350] |  | 56.3% | < 4.35 | 71.00% | 
CC(C)n1ncc2ccc(-c3noc(C4CCN(C(=O)c5ccccc5)CC4)n3)cc21 [Compound 346] | < 4.35 | 1.1% | < 4.35 | 12.12% | 
O=C(O)Cn1nnc(-c2cc(N3CCC(Oc4cc(F)ccc4Br)CC3)no2)n1 [MK-8245, reference compound] |  |  |  |  | half-maximal inhibitory concentration (IC50) (SCD5; SCD5 humanized strain, FIG. 6): low nanomolar; growth of yeast expressing OLE1 in presence of inhibitor (Ole1; FIG. 6): resistant
O=C(c1ccccc1)N1CCC(c2nc(Cl)no2)CC1 [Compound 351] |  | 57.3% | < 4.35 | 68.60% | 
CC(C)n1ncc2ccc(-c3noc(N4CCn5c(Cl)cnc5C4)n3)cc21 [Compound 805] |  |  |  |  | pIC50 (SCD5; humanized yeast strain, 40 h): 5.03; pIC50 (SCD1; humanized yeast strain, 40 h): < 4.35
CC(C)c1noc2ccc(-c3noc(C4CCNCC4)n3)cc12 [Compound 723] |  |  |  |  | pIC50 (SCD5; [3]): < 4.35; pIC50 (SCD1; [4]): < 4.35
CN(c1cc(-c2nc(N3CCN(C(=O)OC(C)(C)C)CC3)no2)ccn1)C1COC1 [Compound 1022] |  |  |  |  | pIC50 (SCD5; humanized yeast strain, 40 h): 8.00; pIC50 (SCD1; humanized yeast strain, 40 h): < 4.35
CC(C)(C)OC(=O)N1CCC(c2noc(-c3cc(F)c4cnn(C5CCOC5)c4c3)n2)CC1 (centres unmarked) [Compound 1075] |  |  |  |  | pIC50 (SCD5; humanized yeast strain, 40 h): 8.00; pIC50 (SCD1; humanized yeast strain, 40 h): 5.36
CC(C)N1C(=O)Cc2ccc(-c3noc(C4CCN(C(=O)CC5(C)CC5)CC4)n3)cc21 [Compound 626] |  |  |  |  | pIC50 (SCD5; [3]): 5.56; pIC50 (SCD1; [4]): < 4.35
CC1(OC(=O)N2CCC(c3nnc(-c4ccc5cnn(C6CCOC6)c5c4)o3)CC2)CC1 (centres unmarked) [Compound 986] |  |  |  |  | pIC50 (SCD5; humanized yeast strain, 40 h): 7.32; pIC50 (SCD1; humanized yeast strain, 40 h): < 4.35
CN(C)CC(=O)N1CCN(c2nc(-c3ccc4cnn(C5COC5)c4c3)no2)CC1 [Compound 737] |  |  |  |  | pIC50 (SCD5; [3]): < 4.35; pIC50 (SCD1; [4]): < 4.35
CC(C)(C)OC(=O)N1CCC(c2noc(-c3ccc(F)c(N4CCOCC4)c3)n2)CC1 [Compound 1149] |  |  |  |  | pIC50 (SCD5; humanized yeast strain, 40 h): 8.00; pIC50 (SCD1; humanized yeast strain, 40 h): < 4.35
CC(=O)N1CC(n2cc3ccc(-c4noc(C5CCN(C(=O)OC(C)(C)C)CC5)n4)cc3n2)C1 [Compound 711] |  |  |  |  | pIC50 (SCD5; [3]): < 4.35; pIC50 (SCD1; [4]): < 4.35
CC(C)(C)OC(=O)N1CCC(c2nc(-c3ccc4cnn([C@H]5CCOC5)c4c3)no2)CC1 [Compound 791] |  |  |  |  | pIC50 (SCD5; humanized yeast strain, 40 h): 8.00; pIC50 (SCD1; humanized yeast strain, 40 h): < 4.35
